US5998376A, “Substance P treatment for immunostimulation” (priority 1998, dated 1999)

Legend:
splenic B cells = assay: Mitogenesis of spleen B cells (lipopolysaccharide, 3H-thymidine) from LP-BM5-infected mice given SP aerosol; assay type: in vivo, C57BL6 mice; details: LP-BM5 virus + SP aerosol 1 μM
Method: C57BL6 mice, average weight of 25-30 grams, were infected with the LP-BM5 murine leukemia retrovirus to simulate the human AIDS virus. […] The mice were divided into two groups; LP-BM5 virus only and LP-BM5 virus +substance P aerosol therapy at 1 μM concentration. The mice were killed at 4 and 8 weeks post-inoculation.
The proliferation of splenic B and T cells induced by mitogens was determined by incorporation of radioactive thymidine. Splenocytes in 0.1 ml of cell culture medium (1×10^7 cells/ml) were cultured in 96-well flat-bottom cultured plates with ConA and lipopolysaccharide, 5 micrograms/ml). The cells were incubated at 37° C., 5% CO2 incubator for 72 hours for ConA-induced T cell proliferation, and then pulsed with ^3 H-thymidine (1 microCurie/well). After 4 hours for radioactive thymidine uptake, the cells were harvested by a cell sample harvester. Radioactivity was determined by a liquid scintillation counter (Tri-Carb, 2200CA). The T and B cell mitogenesis values were recorded as counts per min in 1×10^7 cells/ml.

[1] = tested on: immune system organs (spleen, lymph nodes and thymus); assay: Organ Weight and Total Cell Recovery, JP-8 exposed mice; assay type: in vivo, C57B16 mice; parameters: Spleen Weight / Thymus Weight: unit not given here
Method: (§1) At 24 hours after the last exposure, the animals were sacrificed and the effects of exposure on the immune system examined. Immune organs (spleen, thymus, blood, lymph nodes and bone marrow) were recovered and analyzed for effects on organ weight, total cell numbers, immune cell populations (by differentials), and lymphocyte subpopulations (by flow cytometry). Assays were also performed to examine the effects of exposure on immune function. […] Similar effects on immune cell subpopulations were also observed in lymph nodes. In the thymus it appeared that the immature CD4^+ CD8^+ cells were differentially lost due to exposure. […] However, these effects are prevented or ameliorated by treatment of the animals with Substance P.
Organ Weight and Total Cell Recovery: For each of the immune system organs (spleen, lymph nodes and thymus) the wet weight is determined after removal using a microbalance. After processing of the organs into single cell suspensions the cell numbers and viabilities are determined using trypan blue staining. Histochemical differentials are performed at this time. Cell numbers and viabilities are again determined after centrifugation of the cell suspensions through density gradients to obtain mononuclear cells.

[2] = tested on: melanoma B16 cancer cells; assay: B16 melanoma tail vein injection, tumor colonies in both lungs; assay type: in vivo, mice; details: for mean number of tumor colonies observed in both lungs: 1×10^4 B16 cells/mouse, 4 weeks post-injection
Source text: The mice were infected with syngeneic […] melanoma B16 cancer cells by tail vein injection. The dose was 1×10^4 B16 tumor cells/mouse. […] The second group of mice was given their substance P aerosol therapy starting one week after the injection of the B16 cells. The aerosol therapy lasted for one week. Both groups of mice and their corresponding controls (injection with B16 cells and no substance P therapy) were killed at 4 weeks post-injection with B16 cells. The data is presented as the mean number of tumor colonies observed in both lungs.

[3] = tested on: spleen, thymus and bone marrow cells; assay: Substance P aerosol therapy in JP-8 jet fuel exposed mice, cell numbers (FIGS. 1-3); assay type: in vivo, C57BL6 mice
Source text: Since mice are nose-breathers, they were exposed to the aerosol/vapor mixture via nose-only presentation while they were held in individual loading tubes. The tubes were nose-fitted to receiving adaptors that originated from the common anodized aluminum exposure chamber (volume 0.3 m^3, IN-TOX, Albuquerque, N.Mex.). Noses were positioned in the exposure ports to minimize systemic absorption that might occur during total body exposure or through the process of self-grooming after exposure. The mice were rotated on a daily basis through the 24-adaptor positions of the exposure chamber. This was done to minimize proximity to the jet fuel source as a variable in exposure concentration or composition. Passive entrainment of the jet fuel aerosol/vapor mix and room air through the IN-TOX chamber was conducted by vacuum (15 liters/min). The vacuum was applied to the exposure chamber on the side opposite the fuel source. Animal exposure ports not in use were sealed during the exposure period. Longitudinal controls were sham-exposed in a manner identical to those receiving jet fuel, except that only room air was introduced into the exposure chamber. The exposure chamber was thoroughly cleaned prior to the longitudinal control group's exposure.
The substance P aerosol therapy was performed at the completion of the JP-8 jet fuel exposure. The nebulizer was modified with clean hoses and a new sonication crucible. […] The substance P aerosol therapy was conducted for the same seven day period over a total time period of nine days as the JP-8 jet fuel exposure regimen.

immune system = assay: Immune parameters and immune function (blastogenesis, mixed lymphocyte response) after JP-8 exposure; assay type: in vivo, C57B16 mice
Method: as §1
Blastogenesis and Mixed lymphocyte response (MLR) assays: Blastogenesis and MLR assays are set up in 96 well microtitre plated in replicates of 6. Responder cells are plated at 1×10^5 cells/well and are stimulated as indicated (with either media, alloantigen, growth factors or mitogens). After 72 hours the plates are pulsed with 1 uCi/well of ^3 H-thymidine for 18 hours. The wells are then harvested using a Ph.D. cell harvester, the filters dried and scintillation counting performed. The data is presented as the stimulated dpm and is represented as the stimulation index (SI) (Harris et al., Proc. Natl. Acad Sci. USA 89:10006 (1992)).

[4] = 4 weeks after infection, mean (SEM)
[5] = JP-8 dose 0 + SP or antagonist aerosol
[6] = JP-8 dose 1000 + SP or antagonist aerosol
[7] = JP-8 dose 1000 + nSP (1 nanomolar substance P)
[8] = dose printed 100 + nSP (1 nanomolar substance P)
[9] = JP-8 exposed mice, one micromolar aerosol 15 minutes

For Substance P [SP], the “Spleen B Cell Mitogenesis, 24 Hours in Culture” value (splenic B cells; [4]) was 2063 (448) counts per min, the “Spleen B Cell Mitogenesis, 48 Hours in Culture” value (splenic B cells; [4]) was 1369 (231) counts per min and the “Spleen B Cell Mitogenesis, 72 hours in culture” value (splenic B cells; [4]) was 1642 (158) counts per min. The “Spleen B Cell Mitogenesis, 72 hours in culture” value (splenic B cells; 8 weeks post-infection, not significant) was 3227 (854) counts per min, the “BM Cell Number” value [1, 5] was 9 and the “Spleen Cell Number” value [1, 5] was 30. For the same substance, the “Spleen Weight” value [1, 5] was 0.10, the “Thymus Cell Number” value [1, 5] was 18 and the “Thymus Weight” value [1, 5] was 0.04. The “BM Cell Number” value ([1]; JP-8 dose 250 + SP aerosol) was 23, the “Spleen Cell Number” value ([1]; JP-8 dose 250 + SP aerosol) was 40 and the “Spleen Weight” value ([1]; JP-8 dose 250 + SP aerosol) was 0.16. For the same substance, the “Thymus Cell Number” value ([1]; JP-8 dose 250 + SP aerosol) was 20, the “Thymus Weight” value ([1]; JP-8 dose 250 + SP aerosol) was 0.06 and the “BM Cell Number” value [1, 6] was 21. For the same substance, the “LN Cell Number” value [1, 6] was 5.0, the “Spleen Cell Number” value [1, 6] was 72 and the “Spleen Weight” value [1, 6] was 0.14. The “Thymus Cell Number” value [1, 6] was 78, the “Thymus Weight” value [1, 6] was 0.11 and the “BM Cell Number” value [1, 7] was 31. The “Thymus Cell Number” value [1, 7] was 78, the “Thymus Weight” value [1, 7] was 0.04 and the “BM Cell Number” value ([1]; JP-8 dose 2500 + SP aerosol) was 19. For the same substance, the “LN Cell Number” value ([1]; JP-8 dose 2500 + SP aerosol) was 5.0, the “Spleen Cell Number” value ([1]; JP-8 dose 2500 + SP aerosol) was 87 and the “Spleen Weight” value ([1]; JP-8 dose 2500 + SP aerosol) was 0.10. The “Thymus Cell Number” value ([1]; JP-8 dose 2500 + SP aerosol) was 96, the “Thymus Weight” value ([1]; JP-8 dose 2500 + SP aerosol) was 0.08 and the “Spleen Cell Number” value [1, 8] was 58. For the same substance, the “Spleen Weight” value [1, 8] was 0.11, the “mean number of tumor colonies observed in both lungs” value ([2]; 1 μM SP aerosol 15 min/day 7 days starting immediately after injection) was 39 and the “mean number of tumor colonies observed in both lungs” value ([2]; 1 μM SP aerosol for one week starting one week after injection) was 1. The “rate of tumor colonization” value ([2]; tumor-challenged mammals, aerosol therapy) was “reduce the rate of tumor colonization”, the “effect on spleen cell number (FIG. 1)” value ([3]; JP-8 500 or 2500 mg/m^3, 1 hour/day 7 days, one micromolar aerosol 15 minutes after each exposure) was “totally reverse the effect of the jet fuel on the spleen cell number” and the “effect on bone marrow cells (FIG. 3)” value [3, 9] was “augments the stimulation substantially”. For the same substance, the “effect on thymus cell number (FIG. 2)” value [3, 9] was “substantially reverses the effect on cell number”, the “deleterious effects of chronic JP-8 jet fuel exposure to the immune system” value (immune system; Substance P aerosol therapy) was “reversed and/or prevented” and the “majority of the effects of JP-8 jet fuel exposure on the immune system” value (immune system; Substance P at both 1 uM and 1 nM doses) was “could be significantly reversed”. For the same substance, the “effects of JP-8 exposure on all measured immune parameters” value (immune system; mice exposed to 500, 1000 or 2500 mg aerosolized JP-8, 7 days 1 hour/day, treated with Substance P) was “invariably reversed the effects on all measured parameters of JP-8 exposure to almost normal levels”.
